Reference: patent US20190218226A1, “PRODRUGS OF ANTICANCER AGENTS INDOTECAN AND INDIMITECAN” (Purdue Research Foundation, priority 2016, published 2019)
Like-named read-outs stand apart in the source and are kept apart here.

Tests used:
HOP-62 = assay: NCI60 antiproliferative screen, lung HOP-62; assay type: cell-based, human; details: Homo sapiens; HOP-62, 48 h, sulforhodamine B; read-out: Cytotoxicity (GI50) lung HOP-62
Description: (§1) All of the indenoisoquinolines were tested for antiproliferative activity in the National Cancer Institute's 60 cell line screen (NCI60). The cells were incubated with the tested compounds at 100, 10, 1, 0.1, and 0.01 μM concentrations for 48 h before treatment with sulforhodamine B dye. Optical densities were recorded, and their ratios relative to that of the control were plotted as percentage growth against the log 10 of the tested compound concentrations. The concentration that corresponds to 50% growth inhibition (GI50) is calculated by interpolation between the points located above and below the 50% percentage growth. The mean-graph midpoint (MGM) is an estimated average of the GI50 values derived from the NCI collection of 60 human cancer cell lines, where during the MGM calculation, anticancer agents with GI50 values that are outside the testing range of 0.01-100 μM are arbitrarily assigned the values of 0.01 and 100 μM, respectively. […] Also, the GI50 values of many of the substances vs. individual human cancer cell lines are below the lowest concentration used (0.01 μM) in the standard NCI testing protocol. […] For example, the MGM cytotoxicity values of 9, 15-17, and 19 are all very close to each other, but the Top1 inhibitory activities range from +++(+) to 0.

HCT-116 = assay: NCI60 antiproliferative screen, colon HCT-116; assay type: cell-based, human; details: Homo sapiens; HCT-116, 48 h, sulforhodamine B; read-out: Cytotoxicity (GI50) Colon HCT-116
Description: as §1

SF-539 = assay: NCI60 antiproliferative screen, CNS SF-539; assay type: cell-based, human; details: Homo sapiens; SF-539, 48 h, sulforhodamine B; read-out: Cytotoxicity (GI50) CNS SF-539
Description: as §1

UACC-62 = assay: NCI60 antiproliferative screen, melanoma UACC-62; assay type: cell-based, human; details: Homo sapiens; UACC-62, 48 h, sulforhodamine B; read-out: Cytotoxicity (GI50) melanoma UACC-62
Description: as §1

OVCAR-3 = assay: NCI60 antiproliferative screen, ovarian OVCAR-3; assay type: cell-based, human; details: Homo sapiens; OVCAR-3, 48 h, sulforhodamine B; read-out: Cytotoxicity (GI50) Ovarian OVCAR-3
Description: as §1

SN12C = assay: NCI60 antiproliferative screen, renal SN12C; assay type: cell-based, human; details: Homo sapiens, 48 h, sulforhodamine B, read-out: Cytotoxicity (GI50) renal SN12C
Description: as §1

DU-145 = assay: NCI60 antiproliferative screen, prostate DU-145; assay type: cell-based, human; details: Homo sapiens; DU-145, 48 h, sulforhodamine B; read-out: Cytotoxicity (GI50) prostate DU-145
Description: as §1

MCF-7 = assay: NCI60 antiproliferative screen, breast MCF-7; assay type: cell-based, human; details: Homo sapiens, MCF7; MCF-7, 48 h, sulforhodamine B; read-out: Cytotoxicity (GI50) breast MCF-7
Description: as §1

[1] = tested on: all human cancer cell lines successfully tested (NCI60); assay: NCI60 mean graph midpoint for growth inhibition; assay type: cell-based
Description: as §1

Human recombinant Top1 = biological target: T1, Human recombinant Top1 (Homo sapiens, UniProt P11387); assay: Top1-mediated DNA cleavage assay; assay type: biochemical; set-up: key to Top1 inhibitory activity (level): 0, no detectable activity; +, weak activity; ++, similar activity to compound 4; +++, greater activity than 4; ++++, equipotent with 1; ++(+) would be between ++ and +++
T1 construct: made in house
T1 sequence (P11387 1-765): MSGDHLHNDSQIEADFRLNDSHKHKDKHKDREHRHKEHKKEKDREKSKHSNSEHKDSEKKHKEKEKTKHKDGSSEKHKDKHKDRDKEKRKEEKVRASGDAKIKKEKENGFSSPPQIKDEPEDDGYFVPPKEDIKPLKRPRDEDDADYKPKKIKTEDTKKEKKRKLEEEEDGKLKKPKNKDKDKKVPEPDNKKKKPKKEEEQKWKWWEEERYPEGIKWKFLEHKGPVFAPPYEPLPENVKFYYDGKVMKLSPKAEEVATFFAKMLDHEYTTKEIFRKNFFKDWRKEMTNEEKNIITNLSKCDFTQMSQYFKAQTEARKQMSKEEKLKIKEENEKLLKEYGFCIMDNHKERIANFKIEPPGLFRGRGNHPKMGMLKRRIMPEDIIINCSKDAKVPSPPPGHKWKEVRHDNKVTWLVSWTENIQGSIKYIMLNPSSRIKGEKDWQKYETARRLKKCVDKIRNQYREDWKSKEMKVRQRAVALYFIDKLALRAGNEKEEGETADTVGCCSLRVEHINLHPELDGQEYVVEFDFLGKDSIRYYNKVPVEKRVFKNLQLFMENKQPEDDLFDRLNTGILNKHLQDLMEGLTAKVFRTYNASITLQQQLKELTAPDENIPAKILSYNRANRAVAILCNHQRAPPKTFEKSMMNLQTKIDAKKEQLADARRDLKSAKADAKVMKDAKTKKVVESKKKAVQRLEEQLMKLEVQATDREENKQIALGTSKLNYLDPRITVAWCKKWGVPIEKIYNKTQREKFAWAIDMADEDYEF
Description: All of the new indenoisoquinoline derivatives were tested in Top1-mediated DNA cleavage assays. For this purpose, a ^32P 3′-end labeled 117-bp DNA fragment was incubated with Top1 at four concentrations of a tested compound. The DNA fragments were separated on 20% PAGE denaturing gels. The Top1 inhibitory activities were assigned on the basis of the visual inspection of the number and intensities of the gel bands corresponding to Top1-mediated DNA cleavage fragments and scored relative to the Top1 inhibitory activity of compounds 1 and 4. Results are expressed in semiquantitative fashion: 0, no detectable activity; +, weak activity; ++, similar activity to compound 4; +++, greater activity than 4; ++++, equipotent with 1. Ambiguous scores (e.g., between two values) are designated with parentheses (e.g., ++(+) would be between ++ and +++). […] After conversion of the hydroxyl to a dimethylcarbamate, the observed Top1 inhibitory activity increased from ++(+) for compound 8 to +++ for compound 10. Introduction of an acetyl group at the 0-2 position yielded compound 11, which was also a Top1 poison with activity at the ++ level. Subsequently, several hydrophobic substituents were attached to the 0-2 position.
Topoisomerase I-Mediated DNA Cleavage Reactions.
Human recombinant Top1 was purified from baculovirus as previously described (Morrell, A., et al., J. Med. Chem. 2007, 50, 2040-2048). DNA cleavage reactions were prepared as previously reported with the exception of the DNA substrate (Strumberg, D., et al., J. Med. Chem. 1999, 42, 446-457). Briefly, a 117-bp DNA oligonucleotide (Integrated DNA Technologies) encompassing the previously identified Top1 cleavage sites in the 161-bp fragment from pBluescript SK(−) phagemid DNA was employed. This 117-bp oligonucleotide contains a single 5′-cytosine overhang, which was 3′-end-labeled by fill-in reaction with [α-^32P]dGTP in React 2 buffer (50 mM Tris-HCl, pH 8.0, […], 50 mM NaCl) with 0.5 unit of DNA polymerase I (Klenow fragment, New England BioLabs). Unincorporated [^32P]dGTP was removed using mini Quick Spin DNA columns (Roche, Indianapolis, Ind.), and the eluate containing the 3′-end-labeled DNA substrate was collected. Approximately 2 nM radiolabeled DNA substrate was incubated with recombinant Top1 in 20 μL of reaction buffer [10 mM Tris-HCl (pH 7.5), 50 mM KCl, 5 mM MgCl2, 0.1 mM EDTA, and 15 μg/mL BSA] at 25° C. for 20 min in the presence of various concentrations of compounds. The reactions were terminated by adding SDS (0.5% final concentration) followed by the addition of two volumes of loading dye (80% formamide, 10 mM sodium hydroxide, 1 mM sodium EDTA, 0.1% xylene cyanol, and 0.1% bromophenol blue). Aliquots of each reaction mixture were subjected to 20% denaturing PAGE. Gels were dried and visualized by using a phosphoimager and ImageQuant software (Molecular Dynamics). For simplicity, cleavage sites were numbered as previously described in the 161-bp fragment.

Top 1 Cleavage (Human recombinant Top1; graded relative to 1 μM camptothecin): +++ (+++, between 75 and 95% activity)
Top1 inhibitory activity (level) (Human recombinant Top1; scored relative to compounds 1 and 4): +++
melting point: 277 to 279 °C (dec.)
Compound: COc1cc2c(=O)n(CCCN3CCOCC3)c3c(c2cc1OC(=O)c1cccnc1)C(=O)c1cc2c(cc1-3)OCO2 [Compound 14, 3-Methoxy-6-(3-morpholinopropyl)-5,12-dioxo-6,12-dihydro-5H-[1,3]dioxolo[4′,5′:5,6]indeno[1,2-c]isoquinolin-2-yl Nicotinate]
GI50 (HOP-62): 12 nM
GI50 (HCT-116): 30 nM
GI50 (SF-539): < 10 nM
GI50 (UACC-62): 22 nM
GI50 (OVCAR-3): 295 nM
GI50 (SN12C): < 10 nM
GI50 (DU-145): 13 nM
GI50 (MCF-7): < 10 nM
mean GI50 across NCI60 cell lines (MGM) ([1]; Homo sapiens, NCI60, read-out: MGM value): 158 ± 65 nM
mean GI50 across NCI60 cell lines (MGM) ([1]; all human cancer cell lines successfully tested, ± standard error, read-out: MGM (mean graph midpoint for growth inhibition)): 158 ± 65 nM
Top1 inhibitory activity (in words) (Human recombinant Top1): slight improvement in Top1 inhibitory activity
